According to BindingDB's records for doi:10.1021/acs.jmedchem.5b00261 (Genentech, 2015):

Experiment: Inhibition of LRRK2 G2019S mutant-induced neuronal toxicity in human cortical neurons

Molecule `COc1cc(N2CCOCC2)ccc1Nc1ncc(F)c(Nc2ccccc2NS(C)(=O)=O)n1` has an EC50 of 4 nM.
